Data reported in patent US6461997B1, “Triazole sulfones having herbicidal activity” (Monsanto Technology LLC, priority 1999, dated 2002).

Legend:
SOLNI (black nightshade) = experiment: Pre-emergence herbicidal activity, warm season; type: in vivo, Solanum nigrum; conditions: for Pre-emergence activity (GR80) SOLNI: GR80 = lowest tested rate (300, 100, 30, 10 g/ha) with 80% or greater inhibition, approx. 14 days after treating, 30/21° C.
Method in brief: (§1)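 Seeds sown in sterilised fertilised topsoil received surface-applied compound in 50:50 acetone/water, typically at 300, 100, 30 and 10 g/ha, then greenhouse-grown at 30/21° C (warm-season species) or 18/13° C (cool-season species). Percent inhibition versus untreated plants was scored at about 14 days, giving GR80; an asterisk marks activity short of 80% at the top rate.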

POROL (common purslane) = experiment: Pre-emergence herbicidal activity, warm season; type: in vivo, Portulaca oleracea; conditions: GR80 = lowest tested rate (300, 100, 30, 10 g/ha) with 80% or greater inhibition; approx. 14 days after treating; 30/21° C.
Method in brief: as §1

SINAR (wild mustard) = experiment: Pre-emergence herbicidal activity, cool season; type: in vivo, Sinapis arvensis; conditions: lowest tested rate with 80% or greater inhibition; rates 300, 100, 30, 10 g/ha; about 14 days
Method in brief: as §1

[1] = tested on: VERPE (creeping speedwell); experiment: Pre-emergence herbicidal activity, cool season; type: in vivo, Veronica persicaria; conditions: lowest tested rate with 80% or greater inhibition; rates 300, 100, 30, 10 g/ha; about 14 days
Method in brief: as §1

PANDI (fall panicum) = experiment: Pre-plant incorporated (PPI) herbicidal activity, warm season; type: in vivo, Panicum dichotomiflorum; conditions: for PPI activity GR80, PANDI: pre-plant incorporated, lowest tested rate with 80% or greater inhibition, about 14 days
Procedure: (§2) In another set of tests, the pre-plant incorporated (PPI) activity of compounds of this invention was evaluated on the same species as for the pre-emergence tests described above. In the PPI tests the following procedure, designed to simulate PPI application, was used.
(§3) A pre-prepared topsoil mixture (described above) was placed in a pot and compacted to a depth of 1.0 to 1.25 cm from the top of the pot. Seeds of each of several monocotyledonous and dicotyledonous annual plant species were placed on top of the soil. A sufficient quantity of soil to cover the seeds and level fill the pot was weighed into an open container. A known amount of the test compound was dissolved or suspended in an organic solvent and applied by spraying to this cover soil. The cover soil was thoroughly mixed to distribute the test compound throughout the cover soil, and was then applied as a cover layer over the seeds. Untreated soil was used as a cover layer for control pots. After treatment the plants were placed in a greenhouse where they received 0.64 cm of overhead irrigation. All subsequent watering consisted of a light overhead mist and/or subirrigation as needed for germination and growth. Tables 9 and 10 below relate to warm season plant species which were placed after pre-emergence treatment in a greenhouse with a 30/21° C. day/night temperature regime. Tables 11 and 12 below relates to cool season plant species placed after pre-emergence treatment in a greenhouse or growth chamber with an 18/13° C. day/night temperature regime. Only the compounds of Examples 1, 6, 8, 11, 13 and 15-20 were included in PPI tests.
(§4) Approximately 14 days after planting and treating, the plants were observed and herbicidal efficacy recorded as percent inhibition by comparison with untreated plants.

[2] = tested on: LAMPU (purple deadnettle); experiment: Pre-plant incorporated (PPI) herbicidal activity, cool season; type: in vivo, Lamium purpureum; conditions: for inhibition at 30 g/ha / inhibition at 100 g/ha / inhibition at 300 g/ha / inhibition at 900 g/ha: Lamium purpureum, read-out: Percent inhibition LAMPU; for inhibition at 30 g/ha / inhibition at 100 g/ha / inhibition at 300 g/ha / inhibition at 900 g/ha / Percent inhibition LAMPU: weed, PPI application; for PPI activity GR80, LAMPU: pre-plant incorporated, lowest tested rate with 80% or greater inhibition, about 14 days
Procedure: as §2, §3, §4

[3] = tested on: AGRRE (quackgrass (seedling)); experiment: as above; type: in vivo, Elymus repens; conditions: for inhibition at 30 g/ha / inhibition at 100 g/ha / inhibition at 300 g/ha / inhibition at 900 g/ha: Elymus repens, read-out: Percent inhibition AGRRE; for inhibition at 30 g/ha / inhibition at 100 g/ha / inhibition at 300 g/ha / inhibition at 900 g/ha / Percent inhibition AGRRE: weed, PPI application; for PPI activity GR80, AGRRE: pre-plant incorporated, lowest tested rate with 80% or greater inhibition, about 14 days
Procedure: as §2, §3, §4

SETVI (green foxtail) = experiment: Post-emergence herbicidal activity, cool season; type: in vivo, Setaria viridis; conditions: abraded plants sprayed at 300, 100, 30 and 10 g/ha; about 14 days after treatment
Method in brief: (§5)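 Seedlings grown from seed in topsoil pots were treated 9 to 14 days after planting, foliage first abraded with garnet particles, then sprayed with test compound in 50:50 acetone/water at 300, 100, 30 and 10 g/ha (3,100 l/ha). Kept at 18/13° C. day/night, percent inhibition versus abraded unsprayed controls was scored about 14 days later and GR80 assigned.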

[4] = tested on: AEGCY (jointed goatgrass); experiment: Post-emergence herbicidal activity, cool season; type: in vivo, Aegilops cylindrica; conditions: abraded plants sprayed at 300, 100, 30 and 10 g/ha; about 14 days after treatment
Method in brief: as §5

[5] = tested on: AGSST (creeping bentgrass); experiment: Post-emergence herbicidal activity, cool season; type: in vivo, Agrostis stolonifera; conditions: abraded plants sprayed at 300, 100, 30 and 10 g/ha; about 14 days after treatment
Method in brief: as §5

CCN(CC)C(=O)n1cnc(S(=O)(=O)C(F)(F)Br)n1 [Example 1, 3-(bromodifluoromethylsulfonyl)-1-(N,N-diethylcarbamoyl)-1,2,4-triazole]
Pre-emergence activity (GR80) SOLNI (SOLNI (black nightshade)): 100 g/ha
inhibition at 10 g/ha (SOLNI (black nightshade); Solanum nigrum, pre-emergence application, 10 g/ha, read-out: Percent inhibition, weed SOLNI): 0%
inhibition at 30 g/ha (SOLNI (black nightshade); Solanum nigrum, pre-emergence application, 30 g/ha, read-out: Percent inhibition, weed SOLNI): 0%
inhibition at 100 g/ha (SOLNI (black nightshade); Solanum nigrum, pre-emergence application, 100 g/ha, read-out: Percent inhibition, weed SOLNI): 0%
inhibition at 300 g/ha (SOLNI (black nightshade); Solanum nigrum, pre-emergence application, 300 g/ha, read-out: Percent inhibition, weed SOLNI): 0%
inhibition at 900 g/ha (SOLNI (black nightshade); Solanum nigrum, pre-emergence application, 900 g/ha, read-out: Percent inhibition, weed SOLNI): 20%
Pre-emergence activity (GR80) POROL (POROL (common purslane)): 100 g/ha
Pre-emergence activity GR80, SINAR (SINAR (wild mustard)): 100 g/ha
Pre-emergence activity GR80, VERPE [1]: 100 g/ha
PPI activity GR80, PANDI (PANDI (fall panicum)): 100 g/ha
inhibition at 30 g/ha ([2]; 30 g/ha): 80%
inhibition at 100 g/ha ([2]; 100 g/ha): 70%
inhibition at 300 g/ha ([2]; 300 g/ha): 95%
inhibition at 900 g/ha ([2]; 900 g/ha): 100%
PPI activity GR80, LAMPU [2]: 100 g/ha
inhibition at 30 g/ha ([3]; 30 g/ha): 0%
inhibition at 100 g/ha ([3]; 100 g/ha): 20%
inhibition at 300 g/ha ([3]; 300 g/ha): 60%
inhibition at 900 g/ha ([3]; 900 g/ha): 95%
PPI activity GR80, AGRRE [3]: * (activity observed, at least at highest rate, but <80% inhibition)
Post-emergence activity GR80, SETVI (SETVI (green foxtail)): [empty]
Post-emergence activity GR80, AEGCY [4]: [empty]
Post-emergence activity GR80, AGSST [5]: [empty]

CCSC(F)(F)S(=O)(=O)c1ncn(C(=O)N(CC)CC)n1 [Example 8, 1-(N,N-diethylcarbamoyl)-3-[difluoro(ethylthio)methylsulfonyl]-1,2,4-triazole]
Pre-emergence activity (GR80) SOLNI (SOLNI (black nightshade)): 100 g/ha
Pre-emergence activity (GR80) POROL (POROL (common purslane)): 300 g/ha
Pre-emergence activity GR80, SINAR (SINAR (wild mustard)): [empty]
Pre-emergence activity GR80, VERPE [1]: 30 g/ha
inhibition at 30 g/ha (PANDI (fall panicum); Panicum dichotomiflorum, PPI application, 30 g/ha, read-out: Percent inhibition PANDI): 95%
inhibition at 100 g/ha (PANDI (fall panicum); Panicum dichotomiflorum, PPI application, 100 g/ha, read-out: Percent inhibition PANDI): 100%
inhibition at 300 g/ha (PANDI (fall panicum); Panicum dichotomiflorum, PPI application, 300 g/ha, read-out: Percent inhibition PANDI): 100%
inhibition at 900 g/ha (PANDI (fall panicum); Panicum dichotomiflorum, PPI application, 900 g/ha, read-out: Percent inhibition PANDI): 100%
PPI activity GR80, PANDI (PANDI (fall panicum)): 30 g/ha
inhibition at 30 g/ha ([2]; 30 g/ha): 80%
inhibition at 100 g/ha ([2]; 100 g/ha): 100%
inhibition at 300 g/ha ([2]; 300 g/ha): 90%
inhibition at 900 g/ha ([2]; 900 g/ha): 100%
PPI activity GR80, LAMPU [2]: 100 g/ha
inhibition at 30 g/ha ([3]; 30 g/ha): 0%
inhibition at 100 g/ha ([3]; 100 g/ha): 40%
inhibition at 300 g/ha ([3]; 300 g/ha): 70%
inhibition at 900 g/ha ([3]; 900 g/ha): 100%
PPI activity GR80, AGRRE [3]: 300 g/ha
Post-emergence activity GR80, SETVI (SETVI (green foxtail)): [empty]
Post-emergence activity GR80, AEGCY [4]: [empty]
Post-emergence activity GR80, AGSST [5]: [empty]

CCN(CC)C(=O)n1cnc(S(=O)(=O)C(F)(F)SC)n1 [Example 9]
Pre-emergence activity (GR80) SOLNI (SOLNI (black nightshade)): 100 g/ha
Pre-emergence activity (GR80) POROL (POROL (common purslane)): 300 g/ha
Pre-emergence activity GR80, SINAR (SINAR (wild mustard)): 300 g/ha
Pre-emergence activity GR80, VERPE [1]: 100 g/ha
Percent inhibition PANDI (PANDI (fall panicum); PPI application, 30 g/ha): 100%
Percent inhibition PANDI (PANDI (fall panicum); PPI application, 100 g/ha): 100%
Percent inhibition PANDI (PANDI (fall panicum); PPI application, 300 g/ha): 100%
Percent inhibition PANDI (PANDI (fall panicum); PPI application, 900 g/ha): 100%
Percent inhibition LAMPU ([2]; 30 g/ha): 0%
Percent inhibition LAMPU ([2]; 100 g/ha): 40%
Percent inhibition LAMPU ([2]; 300 g/ha): 100%
Percent inhibition LAMPU ([2]; 900 g/ha): 95%
Percent inhibition AGRRE ([3]; 30 g/ha): 0%
Percent inhibition AGRRE ([3]; 100 g/ha): 70%
Percent inhibition AGRRE ([3]; 300 g/ha): 80%
Percent inhibition AGRRE ([3]; 900 g/ha): 100%
Post-emergence activity GR80, SETVI (SETVI (green foxtail)): [empty]
Post-emergence activity GR80, AEGCY [4]: [empty]
Post-emergence activity GR80, AGSST [5]: [empty]
